Measured values taken from patent publication US6464978B1, “Vaccination and methods against multiple sclerosis resulting from pathogenic responses by specific T cell populations” (The Immune Response Corporation, priority 1989, dated 2002).
Values joined by “and” are separate entries in the source; they are usually repeats but may differ in a detail not shown here. Equal entries are not always repeated. “Also recorded” adds a separate entry of the source.

Legend:
[1] = tested on: EAE; assay: Histologic examination of the CNS of vaccinated, MBP-challenged rats; assay type: in vivo; details: Lewis rats, 50 μg peptide in CFA, MBP challenge
From the text: Disease was characterized by severe paralysis and wasting, persisted for 4 to 6 days and spontaneously remitted.
Even sub-clinical signs of disease were abrogated.

[2] = tested on: EAE; assay: Vaccination against EAE in the Lewis rat model, daily clinical scoring after MBP challenge; assay type: in vivo, Lewis rats; parameters: key to EAE clinical score, Days After Challenge 18 / EAE clinical score, Days After Challenge 10 / EAE clinical score, Days After Challenge 11 / EAE clinical score, Days After Challenge 12 / EAE clinical score, Days After Challenge 13 / EAE clinical score, Days After Challenge 14 / EAE clinical score, Days After Challenge 15 / EAE clinical score, Days After Challenge 16 / EAE clinical score, Days After Challenge 17 / EAE clinical score, Days After Challenge 19 / EAE clinical score, Days After Challenge 20: —: no signs; 1: limp tail; 2: hind leg weakness; 3: hind leg paralysis; details: for EAE clinical score, Days After Challenge 10: day 10; for EAE clinical score, Days After Challenge 11: day 11; for EAE clinical score, Days After Challenge 12: day 12; for EAE clinical score, Days After Challenge 13: day 13; for EAE clinical score, Days After Challenge 14: day 14; for EAE clinical score, Days After Challenge 15: day 15; for EAE clinical score, Days After Challenge 16: day 16; for EAE clinical score, Days After Challenge 17: day 17; for EAE clinical score, Days After Challenge 18: day 18
Procedure: Female Lewis rats, (Charles River Laboratories, Raleigh-Durham, N.C.) were immunized in each hind foot pad with 50 μg of guinea pig myelin basic protein emulsified in complete Freund's adjuvant. The first signs of disease were typically observed 9-11 days post-immunization. Disease severity is scored on a three point scale as follows: 1=limp tail; 2=hind leg weakness; 3=hind leg paralysis. Following a disease course of approximately four to six days, most rats spontaneously recovered and were refractory to subsequent EAE induction.
[…]. KLH-VDJ conjugate was administered at a dose equivalent to 10 μg of KLH per rat. Twenty-nine days later each rat was challenged with 50 μg of guinea pig myelin basic protein in complete Freund's adjuvant in the front footpads. Animals were monitored daily beginning at day 9 for clinical, signs of EAE and were scored as described above.
The preparation, administration and evaluation of these vaccines were conducted as described in Examples I through III with the following exceptions: 50 μg of the individual VDJ peptides were incorporated into vaccine formulations containing CFA; neither vaccinations in IFA nor vaccinations with peptides conjugated to KLH were conducted. Control animals were untreated prior to MBP challenge as in Example III or were vaccinated with emulsions of PBS and CFA to assess the protective effect of adjuvant alone. […]

[3] = Lewis rats, 50 μg peptide in CFA, MBP challenge
[4] = one rat per line, 50 μg rat VDJ peptide in CFA
[5] = one rat per line, 50 μg Vβ8 peptide in CFA
[6] = one rat per line, 50 μg JαTA39 peptide in CFA
[7] = one rat per line, 5 μg VDJ or KLH-VDJ equivalent to 10 μg KLH, in IFA or CFA, hind footpads, MBP challenge 29 days later

Sequence: A S S D - S S N T E (ASSDSSNTE) [IR9b]
- histologic lesions / T cell infiltration of the CNS [1]: no histologic lesions characteristic of disease were found in any of the four animals
- protection against clinical EAE (animals protected) [2, 3]: complete protection in all four animals
- EAE clinical score, Days After Challenge 10 [2, 4]: —
- EAE clinical score, Days After Challenge 11 [2, 4]: —
- EAE clinical score, Days After Challenge 12 [2, 4]: —
- EAE clinical score, Days After Challenge 13 [2, 4]: —
- EAE clinical score, Days After Challenge 14 [2, 4]: —
- EAE clinical score, Days After Challenge 15 [2, 4]: —
- EAE clinical score, Days After Challenge 16 [2, 4]: —
- EAE clinical score, Days After Challenge 17 [2, 4]: —
- EAE clinical score, Days After Challenge 18 [2, 4]: —

Sequence: C A S S D - S G N - V L Y F G E G S R (CASSDSGNVLYFGEGSR) [IR3]
- onset, severity and duration of EAE [2, 3]: delays in onset were observed in some; also recorded: others showed both delayed onset as well as decreased severity and/or duration of disease
- EAE clinical score, Days After Challenge 10 [2, 4]: 1 and — (2×)
- EAE clinical score, Days After Challenge 11 [2, 4]: 3 and — (2×)
- EAE clinical score, Days After Challenge 12 [2, 4]: 3 and 2 and —
- EAE clinical score, Days After Challenge 13 [2, 4]: 3 (2×) and —
- EAE clinical score, Days After Challenge 14 [2, 4]: 2 and 3 and —
- EAE clinical score, Days After Challenge 15 [2, 4]: —
- EAE clinical score, Days After Challenge 16 [2, 4]: —
- EAE clinical score, Days After Challenge 17 [2, 4]: —
- EAE clinical score, Days After Challenge 18 [2, 4]: —

Sequence: C A S S D - S G N T E V F F G K (CASSDSGNTEVFFGK) [IR2]
- onset, severity and duration of EAE [2, 3]: delays in onset were observed in some; also recorded: others showed both delayed onset as well as decreased severity and/or duration of disease
- EAE clinical score, Days After Challenge 10 [2, 4]: —
- EAE clinical score, Days After Challenge 11 [2, 4]: —
- EAE clinical score, Days After Challenge 12 [2, 4]: 1 and — (2×)
- EAE clinical score, Days After Challenge 13 [2, 4]: 3 and — (2×)
- EAE clinical score, Days After Challenge 14 [2, 4]: 3 and 2 and 1
- EAE clinical score, Days After Challenge 15 [2, 4]: 3 and 2 and —
- EAE clinical score, Days After Challenge 16 [2, 4]: — (2×) and 3
- EAE clinical score, Days After Challenge 17 [2, 4]: — (2×) and 3
- EAE clinical score, Days After Challenge 18 [2, 4]: —

Sequence: C A S S D - S S N T E V F F G K (CASSDSSNTEVFFGK) [IR1]
- onset, severity and duration of EAE [2, 3]: delays in onset were observed in some; also recorded: others showed both delayed onset as well as decreased severity and/or duration of disease
- EAE clinical score, Days After Challenge 10 [2, 4]: —
- EAE clinical score, Days After Challenge 11 [2, 4]: —
- EAE clinical score, Days After Challenge 12 [2, 4]: —
- EAE clinical score, Days After Challenge 13 [2, 4]: 2 and — and 1
- EAE clinical score, Days After Challenge 14 [2, 4]: 1
- EAE clinical score, Days After Challenge 15 [2, 4]: — and 3 and 1
- EAE clinical score, Days After Challenge 16 [2, 4]: — (2×) and 1
- EAE clinical score, Days After Challenge 17 [2, 4]: —
- EAE clinical score, Days After Challenge 18 [2, 4]: —

Sequence: DMGHGLRLIHYSYDVNSTEK [IR7]
- onset, severity and duration of EAE [2, 3]: Delayed onset as well as decreased severity and duration of disease was observed in one animal
- protection against clinical EAE (animals protected) [2, 3]: One animal was completely protected
- EAE clinical score, Days After Challenge 10 [2, 5]: —
- EAE clinical score, Days After Challenge 11 [2, 5]: —
- EAE clinical score, Days After Challenge 12 [2, 5]: 1 and — (2×)
- EAE clinical score, Days After Challenge 13 [2, 5]: 2 and — (2×)
- EAE clinical score, Days After Challenge 14 [2, 5]: 3 and 1 and —
- EAE clinical score, Days After Challenge 15 [2, 5]: 3 and 1 and —
- EAE clinical score, Days After Challenge 16 [2, 5]: 3 and — (2×)
- EAE clinical score, Days After Challenge 17 [2, 5]: —
- EAE clinical score, Days After Challenge 18 [2, 5]: —

Sequence: RFGAGTRLTVK [IR5]
- histologic lesions / T cell infiltration of the CNS [1]: the two animals which were completely protected showed no histologic evidence of T cell infiltration of the CNS
- effectiveness of vaccination compared with other peptides [2, 3]: more effective than those observed with the mouse VDJ peptide or the Vβ8 peptide
- onset, severity and duration of EAE [2, 3]: in the third, disease onset was markedly delayed
- protection against clinical EAE (animals protected) [2, 3]: Two of three animals were totally protected
- EAE clinical score, Days After Challenge 10 [2, 6]: —
- EAE clinical score, Days After Challenge 11 [2, 6]: —
- EAE clinical score, Days After Challenge 12 [2, 6]: —
- EAE clinical score, Days After Challenge 13 [2, 6]: —
- EAE clinical score, Days After Challenge 14 [2, 6]: —
- EAE clinical score, Days After Challenge 15 [2, 6]: 2 and — (2×)
- EAE clinical score, Days After Challenge 16 [2, 6]: 1 and — (2×)
- EAE clinical score, Days After Challenge 17 [2, 6]: 1 and — (2×)
- EAE clinical score, Days After Challenge 18 [2, 6]: 1 and — (2×)
- EAE clinical score, Days After Challenge 19 ([2]; day 19, one rat per line, 50 μg JαTA39 peptide in CFA): 1 and — (2×)
- EAE clinical score, Days After Challenge 20 ([2]; day 20, one rat per line, 50 μg JαTA39 peptide in CFA): —

Sequence: SGDAGGGYE [VDJ (CFA), free VDJ peptide in PBS emulsified with complete Freund's adjuvant]
- EAE clinical score, Days After Challenge 10 [2, 7]: —
- EAE clinical score, Days After Challenge 11 [2, 7]: —
- EAE clinical score, Days After Challenge 12 [2, 7]: —
- EAE clinical score, Days After Challenge 13 [2, 7]: 1 and — (2×)
- EAE clinical score, Days After Challenge 14 [2, 7]: 3 and 1 and —
- EAE clinical score, Days After Challenge 15 [2, 7]: 3 and 1 and —
- EAE clinical score, Days After Challenge 16 [2, 7]: 3 and 1 and —
- EAE clinical score, Days After Challenge 17 [2, 7]: 2 and — (2×)
- EAE clinical score, Days After Challenge 18 [2, 7]: —

Sequence: SGDAGGGYE [VDJ (IFA), free VDJ peptide in PBS emulsified with incomplete Freund's adjuvant]
- EAE clinical score, Days After Challenge 10 [2, 7]: —
- EAE clinical score, Days After Challenge 11 [2, 7]: —
- EAE clinical score, Days After Challenge 12 [2, 7]: 2 and 1 and —
- EAE clinical score, Days After Challenge 13 [2, 7]: 3
- EAE clinical score, Days After Challenge 14 [2, 7]: 3
- EAE clinical score, Days After Challenge 15 [2, 7]: 3
- EAE clinical score, Days After Challenge 16 [2, 7]: — and 2 (2×)
- EAE clinical score, Days After Challenge 17 [2, 7]: —
- EAE clinical score, Days After Challenge 18 [2, 7]: —
